For orientation: IC50 means the concentration that gives 50% inhibition.

Like-named read-outs stand apart in the source and are kept apart here.

The text below walks through data of patent US10130630B2, “BTK inhibitors” (MERCK SHARP & DOHME CORP., priority 2014, dated 2018).

In test [1] the target is T1, BTK enzyme (full-length BTK, hBTK) (Homo sapiens, UniProt Q06187).
T1 construct: recombinant protein from baculovirus-transfected Sf9 cells: full-length BTK, 6HIS-tag cleaved; 6HIS (cleaved yes); made in house; host or cells: baculovirus-transfected Sf9 cells
T1 sequence (Q06187 whole entry): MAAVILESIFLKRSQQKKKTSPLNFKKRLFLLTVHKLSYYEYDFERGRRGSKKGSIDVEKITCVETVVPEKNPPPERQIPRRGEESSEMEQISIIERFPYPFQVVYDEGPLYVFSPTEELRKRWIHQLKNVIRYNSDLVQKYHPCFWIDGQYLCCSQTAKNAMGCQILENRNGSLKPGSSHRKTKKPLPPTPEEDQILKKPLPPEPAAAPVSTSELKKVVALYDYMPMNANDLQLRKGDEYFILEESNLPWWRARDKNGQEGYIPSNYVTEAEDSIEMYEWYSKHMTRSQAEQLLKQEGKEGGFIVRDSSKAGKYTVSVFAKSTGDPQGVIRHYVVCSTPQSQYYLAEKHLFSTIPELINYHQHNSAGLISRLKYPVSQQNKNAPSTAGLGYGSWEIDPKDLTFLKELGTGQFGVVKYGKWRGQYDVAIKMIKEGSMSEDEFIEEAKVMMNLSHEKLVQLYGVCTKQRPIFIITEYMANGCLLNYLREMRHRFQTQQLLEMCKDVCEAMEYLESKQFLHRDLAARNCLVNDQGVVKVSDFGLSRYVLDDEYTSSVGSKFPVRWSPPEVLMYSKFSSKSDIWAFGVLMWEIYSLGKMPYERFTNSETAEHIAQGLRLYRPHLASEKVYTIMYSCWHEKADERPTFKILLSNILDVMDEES
As to the kind of experiment: Btk enzyme activity assay (LANCE TR-FRET). The test is classed as biochemical. The settings on record: 50 pM hBTK, 25 μM ATP, 60 minute compound and enzyme incubation, read-out: BTK binding IC50. The protocol: BTK enzymatic activity was determined with the LANCE (Lanthanide Chelate Excite) TR-FRET (Time-resolved fluorescence resonance energy transfer) assay. […] To each well of a black non-binding surface Corning 384-well microplate (Corning Catalog #3820), 5 nL of compound (2000 fold dilution in final assay volume of 10 μL) was dispensed, followed by the addition of 7.5 μL of 1× kinase buffer (50 mM Hepes 7.5, 10 mM MgCl2, 0.01% Brij-35, 1 mM EGTA, 0.05% BSA & 1 mM DTT) containing 5.09 pg/μL (66.67 pM) of BTK enzyme (recombinant protein from baculovirus-transfected Sf9 cells: full-length BTK, 6HIS-tag cleaved). Following a 60 minute compound and enzyme incubation, each reaction was initiated by the addition of 2.5 μL 1× kinase buffer containing 8 μM biotinylated “A5” peptide (Biotin-[…]-NH2) (SEQ.ID.NO.: 1), and 100 μM ATP. The final reaction in each well of 10 μL consists of 50 pM hBTK, 2 μM biotin-A5-peptide, and 25 μM ATP. Phosphorylation reactions were allowed to proceed for 120 minutes. Reactions were immediately quenched by the addition of 20 uL of 1× quench buffer (15 mM EDTA, 25 mM Hepes 7.3, and 0.1% Triton X-100) containing detection reagents (0.626 nM of LANCE-Eu-W1024-anti-phosphoTyrosine antibody, PerkinElmer and 86.8 nM of Streptavidin-conjugated Dylight 650, Dyomics/ThermoFisher Scientific). After 60 minutes incubation with detection reagents, reaction plates were read on a PerkinElmer EnVision plate reader using standard TR-FRET protocol. Briefly, excitation of donor molecules (Eu-chelate:anti-phospho-antibody) with a laser light source at 337 nm produces energy that can be transferred to Dylight-650 acceptor molecules if this donor:acceptor pair is within close proximity. Fluorescence intensity at both 665 nm (acceptor) and 615 nm (donor) are measured and a TR-FRET ratio calculated for each well (acceptor intensity/donor intensity). IC50 values were determined by 4 parameter robust fit of TR-FRET ratio values vs. (Log10) compound concentrations.
The following Table 2 provides specific IC50 values for all the examples. The IC50 values set forth below were determined according to Assay method described above.

The subject of test [2] is adenosine uptake into HeLa cells. Nature of the test: [3H]Adenosine uptake assay in HeLa cells. The test is classed as cell-based. The settings on record: 60 minutes uptake, read-out: ADU inhibition IC50 (adenosine uptake inhibition potency). The protocol: Compounds were also screened in an adenosine uptake functional cellular assay using the protocol described below.
Adenosine uptake activity was determined by monitoring the accumulation of tritiated adenosine into HeLa cells (ATCC catalog # CCL-2) using a PMT-based radiometric detection instrument. In this assay, the potency (IC50) of each compound was determined from a ten point (1:3 serial dilution; final compound concentration range in assay from 10 μM to 0.032 nM) titration curve using the following outlined procedure. To each well of a 96-well CytoStar-T scintillating microplate (Perkin Elmer Catalog # RPNQ0163), 25 000 HeLa cells in 100 μL of growth medium comprising: Minimum Essential Media (Life Technologies Catalog # 11095-080)+10% (v/v) foetal bovine serum (FBS; Sigma Aldrich Catalog # F2442) was added. These cells were incubated overnight at 37° C. in a humidified atmosphere with 5% (v/v) CO2. After this time the growth medium was removed and replaced with 40 μL assay medium comprising: Hanks balanced salts solution (HBSS; Thermo Fisher Catalog # SH30268.01)+5% (v/v) FBS. Compound stock solutions in DMSO were diluted in assay medium to 2.5× final compound concentration maintaining a constant DMSO concentration of 0.25% (v/v). 40 μL of compound in assay medium was dispensed into individual wells of the Cytostar-T plates and the plates were incubated for 30 minutes under ambient laboratory conditions. Following this incubation, 20 μL of 500 nM [^3H]adenosine (American Radiolabeled Chemicals Inc. Catalog # ART0287) in assay medium was added and incubated for a further 60 minutes under ambient laboratory conditions. The amount of radiolabel accumulation was then determined using a Perkin Elmer Topcount NXT microplate reader. In brief, HeLa cells adhere to the bottom of the Cytostar-T plate, uptake of [^3H]adenosine into these cells brings the radiolabel into sufficient proximity to excite the scintillant in the base of the plates. These events are captured by single PMT, time-resolved coincidence counting. IC50 values were determined by 4 parameter robust fit of counts per second values vs. (Log10) compound concentrations.

Turning to `CCOc1cc(C(=O)Nc2cc(C(F)(F)F)ccn2)ccc1-c1nc([C@H]2CC[C@H]3N(C2)C(=O)C2(CC2)C3(F)F)n2ccnc(N)c12` [Compound 2, 4-(8-amino-3-((6′S,8a′R)-1′,1′-difluoro-3′-oxohexahydro-1′H-spiro[cyclopropane-1,2′-indolizin]-6′-yl)imidazo[1,5-a]pyrazin-1-yl)-3-ethoxy-N-(4-(trifluoromethyl)pyridin-2-yl)benzamide], the IC50 in test [1] was determined as 11.8 nM; in test [2] (Homo sapiens, HeLa), 895 nM.

For `CCOc1cc(C(=O)Nc2cc(C(F)(F)F)ccn2)ccc1-c1nc([C@@H]2CC[C@@H]3N(C2)C(=O)C2(CC2)C3(F)F)n2ccnc(N)c12` [Compound 3, 4-(8-amino-3-((6′R,8a′S)-1′,1′-difluoro-3′-oxohexahydro-1′H-spiro[cyclopropane-1,2′-indolizin]-6′-yl)imidazo[1,5-a]pyrazin-1-yl)-3-ethoxy-N-(4-(trifluoromethyl)pyridin-2-yl)benzamide], the IC50 in test [1] amounted to 1 nM; in test [2], 1330 nM.

Consider `CCOc1cc(C(=O)Nc2cc(C(F)(F)F)ccn2)ccc1-c1nc([C@@H]2CC[C@H]3C(=O)C4(CC4)C(=O)N3C2)n2ccnc(N)c12` [Compound 5, 4-{8-amino-3-[(6′R,8a′S)-1′,3′-dioxohexahydrospiro[cyclopropane-1,2′-indolizin]-6′-yl]imidazo[1,5-a]pyrazin-1-yl}-3-ethoxy-N-[4-(trifluoromethyl)pyridin-2-yl]benzamide], for which the half-inhibitory concentration (IC50) worked out at 1.47 nM in test [1] and 912 nM in test [2] (Homo sapiens, HeLa).

As for `Nc1nccn2c([C@@H]3CC[C@H]4C(=O)C5(CC5)C(=O)N4C3)nc(-c3ccc(C(=O)Nc4cc(C(F)(F)F)ccn4)cc3)c12` [Compound 6, 4-{8-amino-3-[(6′R,8a′S)-1′,3′-dioxohexahydrospiro[cyclopropane-1,2′-indolizin]-6′-yl]imidazo[1,5-a]pyrazin-1-yl}-N-[4-(trifluoromethyl)pyridin-2-yl]benzamide], the IC50 in test [1] is 0.857 nM; in test [2] (Homo sapiens, HeLa), 152 nM.

Regarding `Nc1nccn2c([C@@H]3CC[C@H]4C(=O)C5(CC5)C(=O)N4C3)nc(-c3ccc(C(=O)Nc4cc(C(F)(F)F)ccn4)cc3F)c12` [Compound 7, 4-{8-amino-3-[(6′R,8a′S)-1′,3′-dioxohexahydrospiro[cyclopropane-1,2′-indolizin]-6′-yl]imidazo[1,5-a]pyrazin-1-yl}-3-fluoro-N-[4-(trifluoromethyl)pyridin-2-yl]benzamide], the 50% inhibitory concentration (IC50) in test [1] was 0.425 nM; in test [2] (Homo sapiens, HeLa), 173 nM.

With `Cc1ccnc(NC(=O)c2ccc(-c3nc([C@@H]4CC[C@H]5C(=O)C6(CC6)C(=O)N5C4)n4ccnc(N)c34)cc2)c1` [Compound 8, 4-{8-amino-3-[(6′R,8a′S)-1′,3′-dioxohexahydrospiro[cyclopropane-1,2′-indolizin]-6′-yl]imidazo[1,5-a]pyrazin-1-yl}-N-(4-methylpyridin-2-yl)benzamide], the IC50 in test [1] is 2.07 nM; in test [2] (Homo sapiens, HeLa), 50.9 nM.

For `Nc1nccn2c([C@@H]3CC[C@H]4C(=O)C5(CC5)C(=O)N4C3)nc(-c3ccc(C(=O)Nc4cc(C5CC5)ccn4)cc3)c12` [Compound 9, 4-{8-amino-3-[(6′R,8a′S)-1′,3′-dioxohexahydrospiro[cyclopropane-1,2′-indolizin]-6′-yl]imidazo[1,5-a]pyrazin-1-yl}-N-(4-cyclopropylpyridin-2-yl)benzamide], the IC50 in test [1] amounted to 1.62 nM; in test [2] (Homo sapiens, HeLa) it was 183 nM.

In the case of `Nc1nccn2c([C@@H]3CC[C@H]4[C@@H](O)C5(CC5)C(=O)N4C3)nc(-c3ccc(C(=O)Nc4cc(C(F)(F)F)ccn4)cc3)c12` [Compound 10, 4-{8-amino-3-[(1′S,6′R,8a′S)-1′-hydroxy-3′-oxohexahydrospiro[cyclopropane-1,2′-indolizin]-6′-yl]imidazo[1,5-a]pyrazin-1-yl}-N-[4-(trifluoromethyl)pyridin-2-yl]benzamide], the IC50 was 0.952 nM in test [1] and 861 nM in test [2] (Homo sapiens, HeLa).

Consider `CCOc1cc(C(=O)Nc2cc(C(F)(F)F)ccn2)ccc1-c1nc([C@@H]2CC[C@H]3[C@@H](O)C4(CC4)C(=O)N3C2)n2ccnc(N)c12` [Compound 11, 4-{8-amino-3-[(1′S,6′R,8a′S)-1′-hydroxy-3′-oxohexahydrospiro[cyclopropane-1,2′-indolizin]-6′-yl]imidazo[1,5-a]pyrazin-1-yl}-3-ethoxy-N-[4-(trifluoromethyl)pyridin-2-yl]benzamide], for which the IC50 in test [1] was determined as 0.701 nM; in test [2] (Homo sapiens, HeLa), 1990 nM.

For the compound `Nc1nccn2c([C@@H]3CC[C@H]4[C@@H](O)C5(CC5)C(=O)N4C3)nc(-c3ccc(C(=O)Nc4cc(C(F)(F)F)ccn4)cc3F)c12` [Compound 12, 4-(8-amino-3-((1′S,6′R,8a′S)-1′-hydroxy-3′-oxohexahydro-1′H-spiro[cyclopropane-1,2′-indolizin]-6′-yl)imidazo[1,5-a]pyrazin-1-yl)-3-fluoro-N-(4-(trifluoromethyl)pyridin-2-yl)benzamide], the concentration for half-maximal inhibition (IC50) in test [1] came to 0.385 nM; in test [2] (Homo sapiens, HeLa), 963 nM.

Take `Nc1nccn2c([C@@H]3CC[C@H]4C(O)C5(CC5)C(=O)N4C3)nc(-c3ccc(C(=O)Nc4cc(C5CC5)ccn4)cc3)c12` (stereo partly drawn) [Compound 13, 4-(8-amino-3-((1′S,6′R,8a′S)-1′-hydroxy-3′-oxohexahydro-1′H-spiro[cyclopropane-1,2′-indolizin]-6′-yl)imidazo[1,5-a]pyrazin-1-yl)-N-(4-cyclopropanepyridin-2-yl)benzamide]: the IC50 stood at 1.22 nM in test [1] and 610 nM in test [2] (Homo sapiens, HeLa).

Regarding `CCOc1cc(C(=O)Nc2cc(C(F)(F)F)ccn2)ccc1-c1nc([C@@H]2CC[C@H]3[C@@H](OC)C4(CC4)C(=O)N3C2)n2ccnc(N)c12` [Compound 14, 4-(8-amino-3-((1′S,6′R,8a′S)-1′-methoxy-3′-oxohexahydro-1′H-spiro[cyclopropane-1,2′-indolizin]-6′-yl)imidazo[1,5-a]pyrazin-1-yl)-3-ethoxy-N-(4-(trifluoromethyl)pyridin-2-yl)benzamide], the half-maximal inhibitory concentration (IC50) in test [1] turned out to be 1.28 nM; in test [2] (Homo sapiens, HeLa), 828 nM.

As for `CCOc1cc(C(=O)Nc2cc(C(F)(F)F)ccn2)ccc1-c1nc([C@@H]2CC[C@H]3CN4CCC[C@@H]4C(=O)N3C2)n2ccnc(N)c12` [Compound 15, 4-{8-amino-3-[(5aS,8R,11aR)-11-oxodecahydro-1H-pyrido[1,2-a]pyrrolo[1,2-d]pyrazin-8-yl]imidazo[1,5-a]pyrazin-1-yl}-3-ethoxy-N-[4-(trifluoromethyl)pyridin-2-yl]benzamide], the half-inhibitory concentration (IC50) in test [1] is 0.462 nM; in test [2] (Homo sapiens, HeLa) it was 1110 nM.

On to `CCOc1cc(C(=O)Nc2cc(C(F)(F)F)ccn2)ccc1-c1nc([C@@H]2CC[C@H]3CN4CCC[C@H]4C(=O)N3C2)n2ccnc(N)c12` [Compound 16, 4-{8-amino-3-[(5aS,8R,11aS)-11-oxodecahydro-1H-pyrido[1,2-a]pyrrolo[1,2-d]pyrazin-8-yl]imidazo[1,5-a]pyrazin-1-yl}-3-ethoxy-N-[4-(trifluoromethyl)pyridin-2-yl]benzamide], for which the IC50 in test [1] worked out at 0.489 nM; in test [2] (Homo sapiens, HeLa) it was 1670 nM.
